Experiments:
DHX9 = experiment: Primordazine affinity matrix pull-down with iTRAQ; type: binding; settings: whole zebrafish lysates, with and without competition from free primordazine
Method: A primordazine derivative was synthesized in which an 8-atom linker was appended from the indole nitrogen, terminating in a carboxylic acid (FIG. 4B). […] The derivatized primordazine was then coupled to Affi-Gel 102 agarose beads, generating an affinity matrix (FIG. 4C). The affinity matrix was incubated with whole zebrafish lysates with and without competition from free primordazine, and iTRAQ was used to identify any primordazine-binding proteins. An RNA helicase, DHX9, was identified as binding specifically to the affinity matrix, along with two RNA-binding adapter proteins HNRNPH1 and HNRNPA2B1.

[1] = system: primordazine response element (PRE) of nanos1 3′ UTR; experiment: Translation of injected GFP reporter RNA fused to nanos1 3′ UTR / PRE; type: in vivo, zebrafish; settings: for translation of EGFP: EGFP mRNA fused to 120 bases of nanos1 3′UTR
Source text: During the process of confirming PGC loss in primordazine-treated embryos, it was discovered that GFP translation was highly sensitive to primordazine treatment when fused to the 3′ UTR of the nanos1 gene, but not when fused to other 3′ UTRs. The 3′ UTR of the nanos1 gene was examined for elements capable of conferring primordazine sensitivity. […] This sequence is called the Primordazine Response Element (PRE). […] When other sequences from the nanos1 3′ UTR are used, primordazine has no effect on GFP expression.
mRNA translation is tested using the same GFP reporter depicted in FIG. 2. This reporter consists of GFP mRNA fused to the nanos1 3′ UTR with a mutant miR-430 site. When injected into one-cell stage zebrafish, GFP is expressed in both germ and somatic cells (Giraldez, A. J. et al. Zebrafish MiR-430 promotes deadenylation and clearance of maternal mRNAs. Science 312, 75-79 (2006); Mishima, Y. et al. Differential regulation of germline mRNAs in soma and germ cells by zebrafish miR-430. Curr Biol 16, 2135-2142 (2006)). […] As such, the quantity of mRNA is increased as detected by qPCR, but the quantity of GFP protein diminishes, as determined by quantitative fluorescence microscopy (see FIG. 2 for an example). Mutant animals were injected with the GFP reporter mRNA and quantify the amount of mRNA and protein present at 11 and 24 hours. Attention was paid to the effects of the mutations on baseline translation of GFP and also for effects of the mutations on responsiveness to primordazine.

dCTPP1 = target: T1, dCTPP1 (Homo sapiens, UniProt Q9H773); experiment: Western blot confirmation of binding to primordazine beads
T1 sequence (Q9H773 1-170): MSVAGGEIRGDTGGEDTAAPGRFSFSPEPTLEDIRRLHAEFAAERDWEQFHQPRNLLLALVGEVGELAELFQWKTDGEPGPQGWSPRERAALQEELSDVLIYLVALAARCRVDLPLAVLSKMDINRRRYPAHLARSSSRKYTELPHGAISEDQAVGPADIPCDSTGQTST

[2] = system: primordial germ cells (PGCs); experiment: PGC ablation in transgenic zebrafish embryos expressing GFP in PGCs (small molecule screen); type: in vivo
Method: (§1) In an effort to discover pathways essential for PGC maintenance, a small molecule screen for compounds that promote disappearance of PGCs was performed. The screen was performed with transgenic zebrafish embryos that express GFP exclusively in PGCs. Of 7,000 small molecules screened, three caused disappearance of PGCs without causing other observable changes in embryonic development. The three PGC-ablating compounds were close structural analogs of each other, and the representative compound from this class was named primordazine (FIG. 1A). […] PGC loss was confirmed by multiple PGC lineage markers (FIG. 1B).
Optimization is driven primarily by potency, meaning that each compound acquired is tested for potency, and potency changes influence subsequent rounds of compound design. For testing compounds, 3-5 transgenic zebrafish embryos (expressing GFP from the vasa promoter) are placed in each well of clear-bottom, black-wall 96 well plates. Embryos are treated with DMSO or varying doses of a compound in two-fold dilutions from 8 uM to 16 nM, beginning at 2 h postfertilization. At 24 h, the plate is loaded onto the screening microscope, which systematically scans wells and captures fluorescent images of fish in each well. The efficacy of each compound dose in ablating PGCs is recorded, yielding an EC50 for each compound.

zebrafish embryos [3] = experiment: Sex of adults after embryonic treatment; type: in vivo; settings: embryos treated during early development
GFP labeled PGCs = experiment: Count of GFP labeled PGCs in tilapia embryos exposed to primordazine; type: in vivo, Tilapia (Oreochromis niloticus); settings: for reduction in PGCs number: 5 uM; for GFP labeled cells in midline trunk region: 1 cell stage embryos, 3 day old; for reduction in PGCs number compared to control: after 3 days, 28° C.
Method: Tilapia (Oreochromis niloticus) lines used in this study are derived from a Brazilian strain obtained from a US commercial producer. To study PGCs, assays were performed on embryos from female tilapia carrying the Zpc5:eGFP:tnos 3′UTR construct which produce embryos with GFP labeled PGCs. The tilapia Zpc5 promoter is an oocyte specific promoter, active during oogenesis prior to the first meiotic division. As such, all embryos from an heterozygous transgenic female inherit the eGFP:tnos 3′UTR mRNA, which localizes and become expressed exclusively in PGCs through the action of cis-acting RNA element in their 3′UTR (tilapia nanos 3′UTR). In this system GFP expression in the embryo is strictly maternal. Thus, similarly to zebrafish nos1 3′UTR, tilapia nanos 3′ UTR (tnos 3′UTR) can deliver mRNA and subsequently heterologous protein expression to the PGCs in developing embryos. In this line, GFP expression is first observed in 2 day old embryos, progeny of transgenic female. At 3 days post fertilization (dpf) in 28° C. water, GFP-expressing cells coalesced in two bilateral rows on the midline above the intestine (FIG. 41A). The GFP labeled primordial germ cell can be visualized for up to 6 days post fertilization but fluorescence starts to fade between days 4 & 5. Primordazine treatment: Embryos at different developmental stages were placed into hatching water at 28° C. in plastic Petri dishes with gentle stirring. The first cell division takes place approximately two hours post fertilization (hpf) and gastrulation begins at around 10 hpf. We transferred pre-gastrula (2 hpf, 5 hpf) and post-gastrula embryos (15 hpf) to 96 well plates (1-2 embryos/well) prefilled with hatching water supplemented with 2 fold dilution series of primordazine from 20 uM to 2.5 uM or DMSO (control). The 96 well plate was placed under gentle stirring in a temperature control room at 28° C. At time intervals, embryos were analyzed for GFP expression under a fluorescence dissecting microscope (Zeiss Stereo Discovery.V8) equipped with a GFP filter set. To quantify primordazine activity, 3 day old embryos were placed in fresh water and PGCs were counted. At this stage, in the non-treated control group, approximately 95% of PGCs have migrated to the genital ridges.

deadend 3′UTR = experiment: Translation of GFP message tagged with fragments of the deadend 3′UTR; settings: in vivo
Source text: FIG. 26 illustrates that, in addition to regulating the translation of proteins containing elements from the nanos1 3′ UTR, primordazine blocks translation of proteins from mRNAs containing the deadend 3′UTR.

nanos1 mRNA = nanos1 mRNA level (quantitative PCR) and localization (fluorescent in situ hybridization, confocal microscopy); type: in vivo, zebrafish
Source text: Therefore, mRNA destabilization is not the mechanism by which primordazine blocks nanos1 expression. Next, fluorescent in situ hybridization and confocal microscopy were used to examine the localization of nanos1 mRNA within germ cells.

zebrafish embryos [4] = experiment: Observable effects on embryonic development, apoptosis; type: in vivo
Method: as §1

pgam5 = target: T2, pgam5 (Homo sapiens, UniProt Q96HS1); experiment: Western blot confirmation of binding to primordazine
T2 sequence (Q96HS1 1-289): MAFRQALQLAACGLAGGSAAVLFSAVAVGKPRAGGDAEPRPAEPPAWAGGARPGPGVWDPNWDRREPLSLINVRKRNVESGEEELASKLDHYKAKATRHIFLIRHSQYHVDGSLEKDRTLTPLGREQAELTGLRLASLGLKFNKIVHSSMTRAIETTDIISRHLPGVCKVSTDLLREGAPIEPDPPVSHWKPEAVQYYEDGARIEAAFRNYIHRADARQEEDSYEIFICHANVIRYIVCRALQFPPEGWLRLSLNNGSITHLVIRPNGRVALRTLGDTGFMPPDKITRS

PRE-containing mRNAs = experiment: Translation of GFP mRNA tagged with nanos1 3′UTR in mammalian cell lines (western blotting); type: cell-based; settings: GFP mRNA tagged with 120 bases from nanos1 3′UTR, transfected mammalian cell lines
Method: GFP mRNA was tagged with 120 bases from the nanos1 3′UTR and transfected into various mammalian cell lines. The effect of primordazine was determined by western blotting.

With `CCC(Sc1nnc2c3ccccc3n(CC)c2n1)C(=O)Nc1cccc(C(C)=O)c1` (centres unmarked) [primordazine] the “binding of DHX9” value (DHX9) was “Binds”, the “translation of EGFP” value ([1]; absence of polyadenylation) was “effectively blocked translation” and the “translation of EGFP” value ([1]; polyadenylated in vitro prior to injection) was “failed to block translation”. For the same molecule, the “translation of GFP protein” value ([1]; GFP mRNA followed by the nanos1 3′ UTR) was “prevents its translation”, the “stability of GFP reporter mRNA” value ([1]; GFP mRNA with nanos1 3′ UTR) was “stabilizes the mRNA” and the “translation of GFP RNA” value ([1]; PRE placed in its 3′ UTR, RNA injected into zebrafish) was “blocked”. For the same molecule, the GFP expression ([1]; other sequences from the nanos1 3′ UTR) was “no effect”, the “binding of dCTPP1” value (dCTPP1) was “bind” and the “concentration for maximal efficacy of germ cell ablation” value ([2]; egg / hatching water concentration) was 6 µM. For the same molecule, the PGC-ablating activity ([2]; zebrafish embryos, GFP in PGCs) was “ablates PGCs in a dose-dependent manner”, the “effective concentration in zebrafish embryos” value ([2]; zebrafish, in vivo) was “high nanomolar to low micromolar” and the sex when adult (zebrafish embryos [3]) was “tend to be males”. For the same molecule, the “reduction in PGCs number” value (GFP labeled PGCs; later time point (13 hour old embryos)) was 41%, the “reduction in PGCs number” value (GFP labeled PGCs; treatment begins at 2 hpf) was 72% and the “GFP labeled cells in midline trunk region” value (GFP labeled PGCs; 10 uM) was “marked reduction in number”. The “reduction in PGCs number compared to control” value (GFP labeled PGCs; 10 uM, 5 hours old embryos) was 47%, the “GFP labeled cells in midline trunk region” value (GFP labeled PGCs; 20 uM) was “complete disappearance” and the “reduction in PGCs number compared to control” value (GFP labeled PGCs; 20 uM, 5 hours old embryos) was 67%. For the same molecule, the “level of GFP intensity in PGCs” value (GFP labeled PGCs; 5 hours old embryos) was “reduced”, the “translation of EGFP from mRNAs containing the deadend 3′UTR” value (deadend 3′UTR) was “blocks the translation” and the “localization of nanos1 mRNA within germ cells” value (nanos1 mRNA; fluorescent in situ hybridization, confocal microscopy) was “became localized to discrete puncta”. The “nanos1 mRNA levels” value (nanos1 mRNA; quantitative PCR) was “no decrease”, the apoptosis (zebrafish embryos [4]; FIG. 12) was “does not cause apoptosis” and the “effect on development or organogenesis” value (zebrafish embryos [4]; effective doses) was “no visible effect”. The “binding of pgam5” value (pgam5) was “bind” and the “translation of PRE-containing mRNAs” value (PRE-containing mRNAs) was “inhibits translation”.

— patent US9538734B2, “Germ cell ablation compounds and uses thereof” (THE GENERAL HOSPITAL CORPORATION, priority 2013, dated 2017)
